Experiments:
UACC-257 = assay: NCI one-dose screening, melanoma UACC-257; type: cell-based, human; conditions: 10 μM
MDA-MB-231/ATCC = assay: NCI one-dose screening, breast cancer MDA-MB-231/ATCC; type: cell-based, human; conditions: 10 μM
NCl/ADR-RES = assay: NCI one-dose screening, breast cancer NCl/ADR-RES; type: cell-based, human; conditions: 10 μM; listed under Ovarian cancer
BT-549 = assay: NCI one-dose screening, breast cancer BT-549; type: cell-based, human; conditions: 10 μM
NCI-H522 = assay: NCI one-dose screening, non-small cell lung cancer NCI-H522; type: cell-based, human; conditions: 10 μM
SF-268 = assay: NCI one-dose screening, CNS cancer SF-268; type: cell-based, human; conditions: 10 μM
M14 = assay: NCI one-dose screening, melanoma M14; type: cell-based, human; conditions: 10 μM
CAKI-1 = assay: NCI one-dose screening, renal cancer CAKI-1; type: cell-based, human; conditions: 10 μM
MCF7 = assay: NCI one-dose screening, breast cancer MCF7; type: cell-based, human; conditions: 10 μM
SNB-19 = assay: NCI one-dose screening, CNS cancer SNB-19; type: cell-based, human; conditions: 10 μM
SF-539 = assay: NCI one-dose screening, CNS cancer SF-539; type: cell-based, human; conditions: 10 μM
ACHN = assay: NCI one-dose screening, renal cancer ACHN; type: cell-based, human; conditions: 10 μM
HOP-92 = assay: NCI one-dose screening, non-small cell lung cancer HOP-92; type: cell-based, human; conditions: 10 μM
UACC-62 = assay: NCI one-dose screening, melanoma UACC-62; type: cell-based, human; conditions: 10 μM
SK-MEL-5 = assay: NCI one-dose screening, melanoma SK-MEL-5; type: cell-based, human; conditions: 10 μM
EKVX = assay: NCI one-dose screening, non-small cell lung cancer EKVX; type: cell-based, human; conditions: 10 μM
SN12C = assay: NCI one-dose screening, renal cancer SN12C; type: cell-based, human; conditions: 10 μM
HS 578-T = assay: NCI one-dose screening, breast cancer HS 578-T; type: cell-based, human; conditions: 10 μM; Breast cancer
HCT-15 = assay: NCI one-dose screening, colon cancer HCT-15; type: cell-based, human; conditions: 10 μM
OVCAR-5 = assay: NCI one-dose screening, ovarian cancer OVCAR-5; type: cell-based, human; conditions: 10 μM
LOX IMVI = assay: NCI one-dose screening, melanoma LOX IMVI; type: cell-based, human; conditions: 10 μM
DU145 = assay: NCI one-dose screening, prostate cancer DU145; type: cell-based, human; conditions: 10 μM
A549/ATCC = assay: NCI one-dose screening, non-small cell lung cancer A549/ATCC; type: cell-based, human; conditions: 10 μM
U251 = assay: NCI one-dose screening, CNS cancer U251; type: cell-based, human; conditions: 10 μM
SR = assay: NCI one-dose screening, leukemia SR; type: cell-based, human; conditions: 10 μM
UO-31 = assay: NCI one-dose screening, renal cancer UO-31; type: cell-based, human; conditions: 10 μM
RXF, 393 = assay: NCI one-dose screening, renal cancer RXF, 393; type: cell-based, human; conditions: 10 μM
HCC-2998 = assay: NCI one-dose screening, colon cancer HCC-2998; type: cell-based, human; conditions: 10 μM
MOLT-4 = assay: NCI one-dose screening, leukemia MOLT-4; type: cell-based, human; conditions: 10 μM
KM12 = assay: NCI one-dose screening, colon cancer KM12; type: cell-based, human; conditions: 10 μM
SNB-75 = assay: NCI one-dose screening, CNS cancer SNB-75; type: cell-based, human; conditions: 10 μM
TK-10 = assay: NCI one-dose screening, renal cancer TK-10; type: cell-based, human; conditions: 10 μM
human tumor cell lines = assay: NCI one-dose screening, Mean / Delta / Range of growth percent over all tested cell lines; type: cell-based; conditions: 10 μM; for Growth Percent Delta: delta over all cell lines; for Growth Percent Mean: mean over all cell lines; for Growth Percent Range: range over all cell lines
HL-60, TB = assay: NCI one-dose screening, leukemia HL-60, TB; type: cell-based, human; conditions: 10 μM
COLO 205 = assay: NCI one-dose screening, colon cancer COLO 205; type: cell-based, human; conditions: 10 μM
PRMI-8226 cell line = assay: NCI one-dose screening, leukemia PRMI-8226; type: cell-based, human; conditions: 10 μM
PC-3 = assay: NCI one-dose screening, prostate cancer PC-3; type: cell-based, human; conditions: 10 μM
MALME-3M = assay: NCI one-dose screening, melanoma MALME-3M; type: cell-based, human; conditions: 10 μM
[1] = test system: PC-3 prostate cancer cell line; assay: SRB assay cell viability, PC-3 prostate cancer cell line; type: cell-based, human; conditions: Homo sapiens, PC-3 prostate cancer cell line, Table II prints no unit, μM printed, read-out: SRB assay: 50% inhibition of cancer cell proliferation of sample concentration (IC50) of PC-3 prostate cancer cell line
786-O = assay: NCI one-dose screening, renal cancer 786-O; type: cell-based, human; conditions: 10 μM
NCI-H226 = assay: NCI one-dose screening, non-small cell lung cancer NCI-H226; type: cell-based, human; conditions: 10 μM
SK-MEL-2 = assay: NCI one-dose screening, melanoma SK-MEL-2; type: cell-based, human; conditions: 10 μM
MDA, -MB-435 = assay: NCI one-dose screening, breast cancer MDA, -MB-435; type: cell-based, human; conditions: 10 μM; listed under Melanoma
IGROV1 = assay: NCI one-dose screening, ovarian cancer IGROV1; type: cell-based, human; conditions: 10 μM
HOP-62 = assay: NCI one-dose screening, non-small cell lung cancer HOP-62; type: cell-based, human; conditions: 10 μM
[2] = NCI one-dose screening, renal cancer A489; type: cell-based, human; conditions: 10 μM
OVCAR-3 = assay: NCI one-dose screening, ovarian cancer OVCAR-3; type: cell-based, human; conditions: 10 μM
SK-OV-3 = assay: NCI one-dose screening, ovarian cancer SK-OV-3; type: cell-based, human; conditions: 10 μM
K562cell line = assay: NCI one-dose screening, leukemia K562; type: cell-based, human; conditions: 10 μM
OVCAR-8 = assay: NCI one-dose screening, ovarian cancer OVCAR-8; type: cell-based, human; conditions: 10 μM
HT29 = assay: NCI one-dose screening, colon cancer HT29; type: cell-based, human; conditions: 10 μM
NCI-H460 = assay: NCI one-dose screening, non-small cell lung cancer NCI-H460; type: cell-based, human; conditions: 10 μM
HCT-116 = assay: NCI one-dose screening, colon cancer HCT-116; type: cell-based, human; conditions: 10 μM
MDA-MB-468 = assay: NCI one-dose screening, breast cancer MDA-MB-468; type: cell-based, human; conditions: 10 μM
T-47D = assay: NCI one-dose screening, breast cancer T-47D; type: cell-based, human; conditions: 10 μM
NCI-H23 = assay: NCI one-dose screening, non-small cell lung cancer NCI-H23; type: cell-based, human; conditions: 10 μM
SK-MEL-28 = assay: NCI one-dose screening, melanoma SK-MEL-28; type: cell-based, human; conditions: 10 μM

SMILES: COc1ccc(Sc2cc3c(c4nsnc24)C(=O)c2ccccc2C3=O)cc1 [C41, 4-(4-methoxy-phenyl-thio)anthra[2,1-c] [1,2,5]thiadiazol-6,11-dione]
- Growth Percent UACC-257 (UACC-257): 118.11%
- Growth Percent MDA-MB-231/ATCC (MDA-MB-231/ATCC): 87.58%
- Growth Percent NCI/ADR-RES (NCl/ADR-RES): 97.60%
- Growth Percent BT-549 (BT-549): 92.92%
- Growth Percent NCI-H522 (NCI-H522): 95.69%
- Growth Percent SF-268 (SF-268): 94.81%
- Growth Percent M14 (M14): 92.89%
- Growth Percent CAKI-1 (CAKI-1): 108.29%
- Growth Percent MCF7 (MCF7): 93.78%
- Growth Percent SNB-19 (SNB-19): 113.97%
- Growth Percent SF-539 (SF-539): 93.53%
- Growth Percent ACHN (ACHN): 102.26%
- Growth Percent HOP-92 (HOP-92): 91.38%
- Growth Percent UACC-62 (UACC-62): 108.99%
- Growth Percent SK-MEL-5 (SK-MEL-5): 106.14%
- Growth Percent EKVX (EKVX): 148.76%
- Growth Percent SN12C (SN12C): 106.54%
- Growth Percent HS 578T (HS 578-T): 96.71%
- Growth Percent HCT-15 (HCT-15): 109.35%
- Growth Percent OVCAR-5 (OVCAR-5): 103.00%
- Growth Percent LOX IMVI (LOX IMVI): 90.24%
- Growth Percent DU145 (DU145): 112.48%
- Growth Percent A549/ATCC (A549/ATCC): 103.32%
- Growth Percent U251 (U251): 102.73%
- Growth Percent SR (SR): 101.71%
- Growth Percent UO-31 (UO-31): 68.31%
- Growth Percent RXF 393 (RXF, 393): 109.28%
- Growth Percent HCC-2998 (HCC-2998): 106.85%
- Growth Percent MOLT-4 (MOLT-4): 82.89%
- Growth Percent KM12 (KM12): 101.28%
- Growth Percent SNB-75 (SNB-75): 79.05%
- Growth Percent TK-10 (TK-10): 135.79%
- Growth Percent Delta (human tumor cell lines): 32.46%
- Growth Percent Mean (human tumor cell lines): 1000.77%
- Growth Percent Range (human tumor cell lines): 80.45%
- Growth Percent HL-60(TB) (HL-60, TB): 102.73%
- Growth Percent COLO 205 (COLO 205): 112.25%
- Growth Percent RPMI-8226 (PRMI-8226 cell line): 101.16%
- Growth Percent PC-3 (PC-3): 82.81%
- Growth Percent MALME-3M (MALME-3M): 89.52%
- IC50 [1]: > 15 µM
- Growth Percent 786-0 (786-O): 94.93%
- Growth Percent NCI-H226 (NCI-H226): 79.51%
- Growth Percent SK-MEL-2 (SK-MEL-2): 99.24%
- Growth Percent MDA-MB-435 (MDA, -MB-435): 118.61%
- Growth Percent IGROV1 (IGROV1): 103.17%
- Growth Percent HOP-62 (HOP-62): 95.20%
- Growth Percent A498 [2]: 84.77%
- Growth Percent OVCAR-3 (OVCAR-3): 109.57%
- Growth Percent SK-OV-3 (SK-OV-3): 106.18%
- Growth Percent K562 (K562cell line): 91.98%
- Growth Percent OVCAR-8 (OVCAR-8): 99.50%
- Growth Percent HT29 (HT29): 101.30%
- Growth Percent NCI-H460 (NCI-H460): 107.16%
- Growth Percent HCT-116 (HCT-116): 94.64%
- Growth Percent MDA-MB-468 (MDA-MB-468): 112.95%
- Growth Percent T-47D (T-47D): 89.66%
- Growth Percent NCI-H23 (NCI-H23): 89.13%
- Growth Percent SK-MEL-28 (SK-MEL-28): 115.63%

SMILES: COc1cccc(Sc2cc3c(c4nsnc24)C(=O)c2ccccc2C3=O)c1 [C46, 4-(3-methoxy-phenyl-thio)anthra[2,1-c] [1,2,5]thiadiazol-6,11-dione]
- Growth Percent UACC-257 (UACC-257): 104/27
- Growth Percent MDA-MB-231/ATCC (MDA-MB-231/ATCC): 87.08%
- Growth Percent NCI/ADR-RES (NCl/ADR-RES): 92.67%
- Growth Percent BT-549 (BT-549): 94.91%
- Growth Percent NCI-H522 (NCI-H522): 82.41%
- Growth Percent SF-268 (SF-268): 89.75%
- Growth Percent M14 (M14): 94.23%
- Growth Percent MCF7 (MCF7): 72.77%
- Growth Percent SNB-19 (SNB-19): 105.92%
- Growth Percent SF-539 (SF-539): 107.05%
- Growth Percent ACHN (ACHN): 98.70%
- Growth Percent HOP-92 (HOP-92): 100.52%
- Growth Percent UACC-62 (UACC-62): 87.72%
- Growth Percent SK-MEL-5 (SK-MEL-5): 100.11%
- Growth Percent EKVX (EKVX): 104.94%
- Growth Percent SN12C (SN12C): 95.93%
- Growth Percent HS 578T (HS 578-T): 93.84%
- Growth Percent HCT-15 (HCT-15): 71.89%
- Growth Percent OVCAR-5 (OVCAR-5): 122.58%
- Growth Percent LOX IMVI (LOX IMVI): 70.96%
- Growth Percent DU145 (DU145): 98.87%
- Growth Percent A549/ATCC (A549/ATCC): 109.52%
- Growth Percent U251 (U251): 100.67%
- Growth Percent SR (SR): 36.14%
- Growth Percent UO-31 (UO-31): 75.49%
- Growth Percent RXF 393 (RXF, 393): 124.15%
- Growth Percent HCC-2998 (HCC-2998): 104.94%
- Growth Percent MOLT-4 (MOLT-4): 35.83%
- Growth Percent KM12 (KM12): 97.06%
- Growth Percent SNB-75 (SNB-75): 81.80%
- Growth Percent TK-10 (TK-10): 130.80%
- Growth Percent Delta (human tumor cell lines): 55.47%
- Growth Percent Mean (human tumor cell lines): 91.30%
- Growth Percent Range (human tumor cell lines): 94.97%
- Growth Percent HL-60(TB) (HL-60, TB): 84.53%
- Growth Percent COLO 205 (COLO 205): 109.57%
- Growth Percent RPMI-8226 (PRMI-8226 cell line): 52.03%
- Growth Percent PC-3 (PC-3): 75.99%
- Growth Percent MALME-3M (MALME-3M): 113.06%
- IC50 [1]: > 15 µM
- Growth Percent 786-0 (786-O): 102.97%
- Growth Percent NCI-H226 (NCI-H226): 95.26%
- Growth Percent SK-MEL-2 (SK-MEL-2): 82.62%
- Growth Percent MDA-MB-435 (MDA, -MB-435): 72.50%
- Growth Percent IGROV1 (IGROV1): 99.91%
- Growth Percent HOP-62 (HOP-62): 61.81%
- Growth Percent A498 [2]: 83.74%
- Growth Percent OVCAR-3 (OVCAR-3): 85.83%
- Growth Percent SK-OV-3 (SK-OV-3): 110.30%
- Growth Percent K562 (K562cell line): 38.52%
- Growth Percent OVCAR-8 (OVCAR-8): 97.32%
- Growth Percent HT29 (HT29): 105.25%
- Growth Percent NCI-H460 (NCI-H460): 100.27%
- Growth Percent HCT-116 (HCT-116): 85.66%
- Growth Percent MDA-MB-468 (MDA-MB-468): 93.53%
- Growth Percent T-47D (T-47D): 69.09%
- Growth Percent NCI-H23 (NCI-H23): 76.42%
- Growth Percent SK-MEL-28 (SK-MEL-28): 101.77%
